Reference: publication PMC2364081, “Antagonists of retinoic acid receptors (RARs) are potent growth inhibitors of prostate carcinoma cells” (British Journal of Cancer, 2001)
pKd: −log10 of the molar value.

Key:
HL60 cells = experiment: ATRA-induced differentiation of HL60 cells to neutrophils (nitroblue tetrazolium reduction); assay type: cell-based, human; settings: antagonist at 100 nM added with 100 nM ATRA
Excerpt: (§1) Prostate cancer is one of the most common cancers in European and American males and has a high mortality rate (Landis et al, 1998; Rosenthal, 1998). Early disease is managed conservatively in Europe although in selected patients surgery is curative. In advanced disease, androgen ablation can produce symptomatic improvement, but the tumour often re-emerges in an androgen- independent and incurable form. One proposed treatment for androgen-independent prostate carcinoma is differentiation ther- apy, in which agents such as all-trans-retinoic acid (ATRA), 9-cis- retinoic acid and 1, 25-dihydroxyvitamin D3 (D3 ) are used to induce growth arrest, differentiation and sometimes apoptosis of the tumour cells (Liang et al, 1999; de Vos et al, 1997; Skowronski et al, 1994; Hedlund et al, 1997). ATRA and synthetic analogues exert their biological effects by binding to two families of retinoid receptors, […]. These are ligand-dependent transcription factors of the steroid/thyroid hormone nuclear receptor superfamily (Chambon 1994; Boehm et al, 1995). Activated RARs bind to retinoic acid-responsive elements (RAREs) in the promoters of genes and thus regulate gene expression. They also antagonize the activity of the tran- scription factor AP1 and thereby down-regulate the expression of some AP1-activated genes (Nagpal et al, 1995). […]

RARβ = target: T1, RARβ (Homo sapiens, UniProt P10826); experiment: Binding to baculovirus-expressed RARβ; parameters: made in house; settings: baculovirus-expressed receptor
T1 sequence (P10826 1-455): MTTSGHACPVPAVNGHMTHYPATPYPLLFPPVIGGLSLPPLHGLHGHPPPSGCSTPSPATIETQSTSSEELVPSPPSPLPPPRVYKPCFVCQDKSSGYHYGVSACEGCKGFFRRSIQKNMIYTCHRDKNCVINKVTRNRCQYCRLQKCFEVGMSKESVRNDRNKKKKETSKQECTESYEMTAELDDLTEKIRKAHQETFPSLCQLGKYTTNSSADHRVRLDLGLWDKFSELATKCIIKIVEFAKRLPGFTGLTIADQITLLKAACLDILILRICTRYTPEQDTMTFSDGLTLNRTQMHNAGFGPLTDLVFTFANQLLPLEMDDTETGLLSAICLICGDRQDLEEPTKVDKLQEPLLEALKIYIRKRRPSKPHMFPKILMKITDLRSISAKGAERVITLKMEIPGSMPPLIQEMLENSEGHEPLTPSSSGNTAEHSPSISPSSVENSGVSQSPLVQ
Excerpt: (§2) Prostate cancer is one of the most common cancers in European and American males and has a high mortality rate (Landis et al, 1998; Rosenthal, 1998). Early disease is managed conservatively in Europe although in selected patients surgery is curative. In advanced disease, androgen ablation can produce symptomatic improvement, but the tumour often re-emerges in an androgen- independent and incurable form. One proposed treatment for androgen-independent prostate carcinoma is differentiation ther- apy, in which agents such as all-trans-retinoic acid (ATRA), 9-cis- retinoic acid and 1, 25-dihydroxyvitamin D3 (D3 ) are used to induce growth arrest, differentiation and sometimes apoptosis of the tumour cells (Liang et al, 1999; de Vos et al, 1997; Skowronski et al, 1994; Hedlund et al, 1997). ATRA and synthetic analogues exert their biological effects by binding to two families of retinoid receptors, […]. These are ligand-dependent transcription factors of the steroid/thyroid hormone nuclear receptor superfamily (Chambon 1994; Boehm et al, 1995). Activated RARs bind to retinoic acid-responsive elements (RAREs) in the promoters of genes and thus regulate gene expression. They also antagonize the activity of the tran- scription factor AP1 and thereby down-regulate the expression of some AP1-activated genes (Nagpal et al, 1995). One approach to unravelling the contributions of RAR sub-types to these actions has been the development of synthetic retinoids with selective activities at individual RARs and RXRs. For example, the diaryl- acetylenic retinoids allow separation of transactivation and AP1 antagonism functions at RAR (Nagpal et al, 1995). Recently, compounds that are selective for particular RAR sub-types have been synthesized: these include both agonists and antagonists (Chandraratna, 1995; Teng et al, 1999; Johnson et al, 1999). The functional selectivity of these compounds may open the way to achieving differentiation or apoptosis of tumour cells with minimal systemic side effects (Chandraratna, 1995). Cell lines that are commonly used in the evaluation of investiga- tional agents for prostate cancer include LNCaP, DU-145 and PC- 3. […] These lines are relatively insensitive to growth inhibition and induction of apoptosis by ATRA and by synthetic agonists. […] Fenretinide (4HPR) induces apoptosis of LNCaP and of PC-3 cells at 1-5 M and 25 µM, respectively (Pienta et al, 1993; Heish and Wu, 1997). Pfahl and colleagues examined the growth inhibitory effects of a panel of receptor-selective retinoids against DU145 and PC-3 cells and achieved complete growth inhibition and induction of apoptosis between 1 M and 10 M (Lu et al, 1999). […] Antagonists of retinoic acid receptors (RARs) are potent growth inhibitors of prostate carcinoma cells LA Hammond1 , CH Van Krinks2 , J Durham2 , SE Tomkins2 , RD Burnett3 , EL Jones1 , RAS Chandraratna3 and G Brown2 Divisions of 1 Cancer Studies and of 2 Immunity and Infection, University of Birmingham Medical School, Edgbaston, Birmingham B15 2TT, UK and 3 Retinoid Research, Allergan Inc., Irvine, California, USA Summary Novel synthetic antagonists of retinoic acid receptors (RARs) have been developed. To avoid interference by serum retinoids when testing these compounds, we established serum-free grown sub-lines (>3 years) of the prostate carcinoma lines LNCaP, PC3 and DU145. […] A component(s) of serum and of LNCaP-conditioned medium diminishes the activity of antagonists: this factor is not the most likely candidates IGF-1 and EGF. In vitro studies of RAR antagonists together with data from RAR-null mice lead to the hypothesis that RAR-regulated gene transcription is necessary for the survival and maintenance of prostate epithelium. […]

RARs = experiment: Binding to RARs (stated over all three subtypes); settings: range over RARα, RARβ and RARγ
Excerpt: as §1

RARγ = target: T2, RARγ (Homo sapiens, UniProt P13631); experiment: Binding to baculovirus-expressed RARγ; parameters: made in house; settings: baculovirus-expressed receptor
T2 sequence (P13631 1-454): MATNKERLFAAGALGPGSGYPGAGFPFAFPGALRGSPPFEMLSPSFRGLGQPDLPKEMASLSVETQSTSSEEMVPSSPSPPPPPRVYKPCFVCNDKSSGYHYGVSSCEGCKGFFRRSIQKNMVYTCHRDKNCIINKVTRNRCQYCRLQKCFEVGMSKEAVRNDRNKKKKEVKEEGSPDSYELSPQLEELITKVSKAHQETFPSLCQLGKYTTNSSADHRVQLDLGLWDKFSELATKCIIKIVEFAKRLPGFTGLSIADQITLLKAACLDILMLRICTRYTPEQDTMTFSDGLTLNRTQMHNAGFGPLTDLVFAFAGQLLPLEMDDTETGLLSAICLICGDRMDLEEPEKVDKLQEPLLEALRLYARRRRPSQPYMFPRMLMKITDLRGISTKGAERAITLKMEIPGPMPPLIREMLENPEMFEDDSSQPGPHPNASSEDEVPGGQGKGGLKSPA
Excerpt: as §2

CCc1ccc(C2=CC(C)(C)Sc3ccc(C#Cc4ccc(C(=O)O)cc4)cc32)cc1 [AGN194310]
percentage of mature cells (HL60 cells): 5% | pKd (RARβ): 8.70 | pKd (RARs): 8.30 to 8.70 | pKd (RARγ): 8.30
